According to patent US9114077B2, “Nanocrystals for use in topical cosmetic formulations and method of production thereof” (priority 2006, dated 2015):

Tests used:
[1] = type: physicochemical
Description: 5% Rutin micro-sized powder was dispersed in water, shaken and subsequently centrifuged at 4,000 rpm and then filtered through a 0.45 μm filter to remove any potential non-dissolved fine crystals. A Rutin nanosuspension was treated the same way but using a 0.2 μm filter.

[2] = test system: skin of volunteers (UV erythem); test: photo-protective potential after topical application in vivo (MED for UV erythem, SPF); settings: human volunteers, 2 mg/cm^2 once daily on 4 days, UV irradiation day 4, 15 min after application
Description: The Rutin and the Hesperidin nanosuspensions were investigated in vivo regarding their photo-protective potential compared to solutions of a water-soluble Rutin conjugate with saccharide (example 15). Topical application of the anti-oxidants should increase the dose required to generate a UV erythem. The higher the photo-protective effect, the higher will be the increase in the MED for UV erythem generation. Based on the ratio MED of treated area/MED untreated area a sun protection factor can be calculated. […] To very well differentiate in efficiency between the preparations, the formulations were applied only over 4 days (day 1, 2, 3 and 4) and only once a day. […] It has to be noted that the selected concentration of Rutin saccharide was equivalent to 5% Rutin.
Various formulations were investigated regarding their photo-protective potential after topical application in vivo. These formulations contained antioxidants and the photo-protective potential was evaluated by assessing the MED for generating an UV erythem (MED—minimal dose required for generating an erythem, minimal erythem dose). The sun susceptibility of the skin of volunteers was assessed after four times of application (once daily) of the formulations in comparison to untreated skin. Based on this a sun protection factor (SPF) was calculated.
The study was performed as a placebo controlled double blind study. Three male and three female volunteers with normal skin of photo type II to III took part. The medium age of the female volunteers was 49.6±9.8 years (38.8-57.4 years). Topical application of the formulations took place on 4 subsequent days (2 mg/cm^2), once daily. On day 4 eradiation by UV was performed 15 minutes after application of the formulations to the skin using a sun simulator SU6p (m.u.t. GmbH, Wedel/Germany). The sun simulator created 6 single doses with a geometric increment of 25%. The 5 test areas were on the back of the volunteers (4 areas for the formulations, 1 untreated control area).
A sun protection factor was defined as the ratio of the MED of the formulation treated area to the MED of the untreated area.

Compound: C[C@@H]1O[C@@H](OC[C@H]2O[C@@H](Oc3c(-c4ccc(O)c(O)c4)oc4cc(O)cc(O)c4c3=O)[C@H](O)[C@@H](O)[C@@H]2O)[C@H](O)[C@H](O)[C@H]1O [microcrystalline Rutin suspension, Rutin]
- saturation solubility (concentration of dissolved Rutin in filtrate) [1]: 0.0079%

Compound: CC(=O)Oc1c(C)c(C)c2c(c1C)CCC(C)(CCC[C@H](C)CCC[C@H](C)CCCC(C)C)O2 (stereo partly drawn) [α-tocopherol acetate]
- sun protection factor (SPF) = ratio MED treated area/MED untreated area (partly given as MED) [2]: 0.85±0.23
- sun protection factor (SPF) = ratio MED treated area/MED untreated area (partly given as MED) ([2]; listed as alpha-tocopherol acetate): 0.85

Compound: α-G Rutin PS
- sun protection factor (SPF) = ratio MED treated area/MED untreated area (partly given as MED) ([2]; listed as AGRPS): 1.27±0.31
- sun protection factor (SPF) = ratio MED treated area/MED untreated area (partly given as MED) ([2]; listed as Rutin derivative solution): 1.27
- sun protection factor (SPF) = ratio MED treated area/MED untreated area (partly given as MED) ([2]; listed as Rutin saccharide): 1.27
